Laboratory results: ChEMBL document CHEMBL1201861, “Genomics of Drug Sensitity in Cancer screening data, Wellcome Trust Sanger Institute”

Tested on: TGBC1TKB;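 note: growth inhibition of TGBC1TKB cells, read out by a cell viability assay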
Test: cells
Type: functional, cell-based, Homo sapiens
Conditions: Homo sapiens, TGBC1TKB
Description: SANGER: Inhibition of human TGBC1TKB cell growth in a cell viability assay.

Structure (SMILES)	IC50 [µM]
CC1=C(/C=C/C(C)=C/C=C/C(C)=C/C(=O)O)C(C)(C)CCC1 [TRETINOIN]	> 10

Tested on: OCI-AML2;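 note: growth inhibition of OCI-AML2 cells, read out with a cell viability assay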
Test: cells
Type: functional, cell-based, Homo sapiens
Conditions: Homo sapiens, OCI-AML2
Description: SANGER: Inhibition of human OCI-AML2 cell growth in a cell viability assay.

Structure (SMILES)	IC50 [µM]
CC1=C(/C=C/C(C)=C/C=C/C(C)=C/C(=O)O)C(C)(C)CCC1 [TRETINOIN]	> 10

Tested on: PSN1;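 note: suppression of growth of human PSN1 cells, read out by a cell viability assay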
Test: cells
Type: functional, cell-based, Homo sapiens
Conditions: Homo sapiens, PSN1
Description: SANGER: Inhibition of human PSN1 cell growth in a cell viability assay.

Structure (SMILES)	IC50 [µM]
CC1=C(/C=C/C(C)=C/C=C/C(C)=C/C(=O)O)C(C)(C)CCC1 [TRETINOIN]	> 10

Tested on: NOS-1;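 note: growth inhibition of the human NOS-1 cell line, read out with a cell viability assay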
Test: cells
Type: functional, cell-based, Homo sapiens
Conditions: Homo sapiens, NOS-1
Description: SANGER: Inhibition of human NOS-1 cell growth in a cell viability assay.

Structure (SMILES)	IC50 [µM]
CC1=C(/C=C/C(C)=C/C=C/C(C)=C/C(=O)O)C(C)(C)CCC1 [TRETINOIN]	> 10

Tested on: NCI-H526;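 note: growth inhibition of the human NCI-H526 cell line, measured by a cell viability assay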
Test: cells
Type: functional, cell-based, Homo sapiens
Conditions: Homo sapiens, NCI-H526
Description: SANGER: Inhibition of human NCI-H526 cell growth in a cell viability assay.

Structure (SMILES)	IC50 [µM]
CC1=C(/C=C/C(C)=C/C=C/C(C)=C/C(=O)O)C(C)(C)CCC1 [TRETINOIN]	7.68

Tested on: SNU1;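 note: growth inhibition of human NCI-SNU-1 cells, measured with a cell viability assay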
Test: cells
Type: functional, cell-based, Homo sapiens
Conditions: Homo sapiens, SNU1
Description: SANGER: Inhibition of human NCI-SNU-1 cell growth in a cell viability assay.

Structure (SMILES)	IC50 [µM]
CC1=C(/C=C/C(C)=C/C=C/C(C)=C/C(=O)O)C(C)(C)CCC1 [TRETINOIN]	> 10

Tested on: BT-474
Test: cells
Type: functional, cell-based, Homo sapiens
Conditions: Homo sapiens, BT-474
Description: SANGER: Inhibition of human BT-474 cell growth in a cell viability assay.

Structure (SMILES)	IC50 [µM]
CC1=C(/C=C/C(C)=C/C=C/C(C)=C/C(=O)O)C(C)(C)CCC1 [TRETINOIN]	> 10

Tested on: KM12;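 note: KM12 cell growth inhibition, read out with a cell viability assay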
Test: cells
Type: functional, cell-based, Homo sapiens
Conditions: Homo sapiens, KM12
Description: SANGER: Inhibition of human KM12 cell growth in a cell viability assay.

Structure (SMILES)	IC50 [µM]
CC1=C(/C=C/C(C)=C/C=C/C(C)=C/C(=O)O)C(C)(C)CCC1 [TRETINOIN]	> 10

Tested on: EW-3;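 note: cell viability assay read-out, IC50 reflects inhibition of growth of the EW-3 cells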
Test: cells
Type: functional, cell-based, Homo sapiens
Conditions: Homo sapiens, EW-3
Description: SANGER: Inhibition of human EW-3 cell growth in a cell viability assay.

Structure (SMILES)	IC50 [nM]
CC1=C(/C=C/C(C)=C/C=C/C(C)=C/C(=O)O)C(C)(C)CCC1 [TRETINOIN]	480

Tested on: LC-2-ad;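 note: growth inhibition of human LC-2-ad cells, read out with a cell viability assay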
Test: cells
Type: functional, cell-based, Homo sapiens
Conditions: Homo sapiens, LC-2-ad
Description: SANGER: Inhibition of human LC-2-ad cell growth in a cell viability assay.

Structure (SMILES)	IC50 [µM]
CC1=C(/C=C/C(C)=C/C=C/C(C)=C/C(=O)O)C(C)(C)CCC1 [TRETINOIN]	> 10

Tested on: NCI-H446;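 note: growth inhibition of NCI-H446 cells determined by a cell viability assay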
Test: cells
Type: functional, cell-based, Homo sapiens
Conditions: Homo sapiens, NCI-H446
Description: SANGER: Inhibition of human NCI-H446 cell growth in a cell viability assay.

Structure (SMILES)	IC50 [µM]
CC1=C(/C=C/C(C)=C/C=C/C(C)=C/C(=O)O)C(C)(C)CCC1 [TRETINOIN]	> 10

Tested on: CGTH-W-1;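 note: growth inhibition of human CGTH-W-1 cells measured by cell viability assay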
Test: cells
Type: functional, cell-based, Homo sapiens
Conditions: Homo sapiens, CGTH-W-1
Description: SANGER: Inhibition of human CGTH-W-1 cell growth in a cell viability assay.

Structure (SMILES)	IC50 [µM]
CC1=C(/C=C/C(C)=C/C=C/C(C)=C/C(=O)O)C(C)(C)CCC1 [TRETINOIN]	> 10

Tested on: HT
Test: cells
Type: functional, cell-based, Homo sapiens
Conditions: Homo sapiens, HT
Description: SANGER: Inhibition of human HT cell growth in a cell viability assay.

Structure (SMILES)	IC50 [µM]
CC1=C(/C=C/C(C)=C/C=C/C(C)=C/C(=O)O)C(C)(C)CCC1 [TRETINOIN]	> 10

Tested on: U-266
Test: cells
Type: functional, cell-based, Homo sapiens
Conditions: Homo sapiens, U-266
Description: SANGER: Inhibition of human U-266 cell growth in a cell viability assay.

Structure (SMILES)	IC50 [µM]
CC1=C(/C=C/C(C)=C/C=C/C(C)=C/C(=O)O)C(C)(C)CCC1 [TRETINOIN]	4.12

Tested on: KNS-81-FD;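 note: growth inhibition of KNS-81-FD cells, read out with a cell viability assay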
Test: cells
Type: functional, cell-based, Homo sapiens
Conditions: Homo sapiens, KNS-81-FD
Description: SANGER: Inhibition of human KNS-81-FD cell growth in a cell viability assay.

Structure (SMILES)	IC50 [µM]
CC1=C(/C=C/C(C)=C/C=C/C(C)=C/C(=O)O)C(C)(C)CCC1 [TRETINOIN]	> 10

Tested on: TE-11;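 note: growth inhibition of human TE-11 cells, read out by a cell viability assay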
Test: cells
Type: functional, cell-based
Conditions: Homo sapiens
Description: SANGER: Inhibition of human TE-11 cell growth in a cell viability assay.

Structure (SMILES)	IC50 [µM]
CC1=C(/C=C/C(C)=C/C=C/C(C)=C/C(=O)O)C(C)(C)CCC1 [TRETINOIN]	> 10

Tested on: NCI-H1092;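 note: cell growth inhibition measured with a cell viability assay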
Test: cells
Type: functional, cell-based, Homo sapiens
Conditions: Homo sapiens, NCI-H1092
Description: SANGER: Inhibition of human NCI-H1092 cell growth in a cell viability assay.

Structure (SMILES)	IC50 [µM]
CC1=C(/C=C/C(C)=C/C=C/C(C)=C/C(=O)O)C(C)(C)CCC1 [TRETINOIN]	> 10

Tested on: COLO-824
Test: cells
Type: functional, cell-based, Homo sapiens
Conditions: Homo sapiens, COLO-824
Description: SANGER: Inhibition of human COLO-824 cell growth in a cell viability assay.

Structure (SMILES)	IC50 [µM]
CC1=C(/C=C/C(C)=C/C=C/C(C)=C/C(=O)O)C(C)(C)CCC1 [TRETINOIN]	> 10

Tested on: KU812 cell line;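 note: growth inhibition of KU812 cells, read out with a cell viability assay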
Test: cells
Type: functional, cell-based, Homo sapiens
Conditions: Homo sapiens, KU812
Description: SANGER: Inhibition of human KU812 cell growth in a cell viability assay.

Structure (SMILES)	IC50 [nM]
CC1=C(/C=C/C(C)=C/C=C/C(C)=C/C(=O)O)C(C)(C)CCC1 [TRETINOIN]	536

Tested on: LU-134-A
Test: cells
Type: functional, cell-based, Homo sapiens
Conditions: Homo sapiens, LU-134-A
Description: SANGER: Inhibition of human LU-134-A cell growth in a cell viability assay.

Structure (SMILES)	IC50 [µM]
CC1=C(/C=C/C(C)=C/C=C/C(C)=C/C(=O)O)C(C)(C)CCC1 [TRETINOIN]	> 10

Tested on: ES1;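 note: growth inhibition of ES1 cells, read out with a cell viability assay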
Test: cells
Type: functional, cell-based, Homo sapiens
Conditions: Homo sapiens, ES1
Description: SANGER: Inhibition of human ES1 cell growth in a cell viability assay.

Structure (SMILES)	IC50 [µM]
CC1=C(/C=C/C(C)=C/C=C/C(C)=C/C(=O)O)C(C)(C)CCC1 [TRETINOIN]	> 10

Tested on: NCI-H1581;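 note: cell growth inhibition read out by a viability assay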
Test: cells
Type: functional, cell-based, Homo sapiens
Conditions: Homo sapiens, NCI-H1581
Description: SANGER: Inhibition of human NCI-H1581 cell growth in a cell viability assay.

Structure (SMILES)	IC50 [µM]
CC1=C(/C=C/C(C)=C/C=C/C(C)=C/C(=O)O)C(C)(C)CCC1 [TRETINOIN]	> 10

Tested on: NCI-H1770;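 note: growth inhibition of NCI-H1770 cells determined with a viability readout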
Test: cells
Type: functional, cell-based, Homo sapiens
Conditions: Homo sapiens, NCI-H1770
Description: SANGER: Inhibition of human NCI-H1770 cell growth in a cell viability assay.

Structure (SMILES)	IC50 [µM]
CC1=C(/C=C/C(C)=C/C=C/C(C)=C/C(=O)O)C(C)(C)CCC1 [TRETINOIN]	> 10

Tested on: JVM-3;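 note: growth inhibition of human JVM-3 cells, read out with a cell viability assay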
Test: cells
Type: functional, cell-based, Homo sapiens
Conditions: Homo sapiens, JVM-3
Description: SANGER: Inhibition of human JVM-3 cell growth in a cell viability assay.

Structure (SMILES)	IC50 [µM]
CC1=C(/C=C/C(C)=C/C=C/C(C)=C/C(=O)O)C(C)(C)CCC1 [TRETINOIN]	> 10

Tested on: ES3;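 note: growth inhibition of ES3 cells, read out with a cell viability assay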
Test: cells
Type: functional, cell-based, Homo sapiens
Conditions: Homo sapiens, ES3
Description: SANGER: Inhibition of human ES3 cell growth in a cell viability assay.

Structure (SMILES)	IC50 [µM]
CC1=C(/C=C/C(C)=C/C=C/C(C)=C/C(=O)O)C(C)(C)CCC1 [TRETINOIN]	> 10

Tested on: TE-5;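 note: inhibition of cell growth, read out by a cell viability assay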
Test: cells
Type: functional, cell-based, Homo sapiens
Conditions: Homo sapiens, TE-5
Description: SANGER: Inhibition of human TE-5 cell growth in a cell viability assay.

Structure (SMILES)	IC50 [µM]
CC1=C(/C=C/C(C)=C/C=C/C(C)=C/C(=O)O)C(C)(C)CCC1 [TRETINOIN]	> 10

Tested on: EW-1;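 note: growth inhibition of the human EW-1 cell line, read out by a cell viability assay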
Test: cells
Type: functional, cell-based, Homo sapiens
Conditions: Homo sapiens, EW-1
Description: SANGER: Inhibition of human EW-1 cell growth in a cell viability assay.

Structure (SMILES)	IC50 [µM]
CC1=C(/C=C/C(C)=C/C=C/C(C)=C/C(=O)O)C(C)(C)CCC1 [TRETINOIN]	> 10

Tested on: HCE-4;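 note: cell viability assay measuring inhibition of growth in the human HCE-4 cell line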
Test: cells
Type: functional, cell-based
Conditions: Homo sapiens
Description: SANGER: Inhibition of human HCE-4 cell growth in a cell viability assay.

Structure (SMILES)	IC50 [µM]
CC1=C(/C=C/C(C)=C/C=C/C(C)=C/C(=O)O)C(C)(C)CCC1 [TRETINOIN]	> 10

Tested on: UACC-257
Test: cells
Type: functional, cell-based, Homo sapiens
Conditions: Homo sapiens, UACC-257
Description: SANGER: Inhibition of human UACC-257 cell growth in a cell viability assay.

Structure (SMILES)	IC50 [µM]
CC1=C(/C=C/C(C)=C/C=C/C(C)=C/C(=O)O)C(C)(C)CCC1 [TRETINOIN]	> 10

Tested on: BB65-RCC;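 note: growth inhibition of the cell line, measured with a cell viability assay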
Test: cells
Type: functional, cell-based, Homo sapiens
Conditions: Homo sapiens, BB65-RCC
Description: SANGER: Inhibition of human BB65-RCC cell growth in a cell viability assay.

Structure (SMILES)	IC50 [µM]
CC1=C(/C=C/C(C)=C/C=C/C(C)=C/C(=O)O)C(C)(C)CCC1 [TRETINOIN]	> 10

Tested on: RKO;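 note: growth inhibition of human RKO cells, read out with a cell viability assay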
Test: cells
Type: functional, cell-based, Homo sapiens
Conditions: Homo sapiens, RKO
Description: SANGER: Inhibition of human RKO cell growth in a cell viability assay.

Structure (SMILES)	IC50 [µM]
CC1=C(/C=C/C(C)=C/C=C/C(C)=C/C(=O)O)C(C)(C)CCC1 [TRETINOIN]	> 10

Tested on: KP-N-YS;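 note: cell viability assay measuring inhibition of cell line growth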
Test: cells
Type: functional, cell-based, Homo sapiens
Conditions: Homo sapiens, KP-N-YS
Description: SANGER: Inhibition of human KP-N-YS cell growth in a cell viability assay.

Structure (SMILES)	IC50 [µM]
CC1=C(/C=C/C(C)=C/C=C/C(C)=C/C(=O)O)C(C)(C)CCC1 [TRETINOIN]	> 10

Tested on: MN-60;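 note: growth inhibition of the MN-60 cell line, determined with a cell viability assay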
Test: cells
Type: functional, cell-based, Homo sapiens
Conditions: Homo sapiens, MN-60
Description: SANGER: Inhibition of human MN-60 cell growth in a cell viability assay.

Structure (SMILES)	IC50 [µM]
CC1=C(/C=C/C(C)=C/C=C/C(C)=C/C(=O)O)C(C)(C)CCC1 [TRETINOIN]	> 10

Tested on: OMC-1;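 note: growth inhibition of the OMC-1 cell line, measured by a cell viability assay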
Test: cells
Type: functional, cell-based, Homo sapiens
Conditions: Homo sapiens, OMC-1
Description: SANGER: Inhibition of human OMC-1 cell growth in a cell viability assay.

Structure (SMILES)	IC50 [µM]
CC1=C(/C=C/C(C)=C/C=C/C(C)=C/C(=O)O)C(C)(C)CCC1 [TRETINOIN]	> 10

Tested on: KG-1;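 note: growth inhibition of KG-1 cells, read out by a cell viability assay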
Test: cells
Type: functional, cell-based, Homo sapiens
Conditions: Homo sapiens, KG-1
Description: SANGER: Inhibition of human KG-1 cell growth in a cell viability assay.

Structure (SMILES)	IC50 [µM]
CC1=C(/C=C/C(C)=C/C=C/C(C)=C/C(=O)O)C(C)(C)CCC1 [TRETINOIN]	> 10

Tested on: D-247MG
Test: cells
Type: functional, cell-based
Conditions: Homo sapiens
Description: SANGER: Inhibition of human D-247MG cell growth in a cell viability assay.

Structure (SMILES)	IC50 [µM]
CC1=C(/C=C/C(C)=C/C=C/C(C)=C/C(=O)O)C(C)(C)CCC1 [TRETINOIN]	> 10

Tested on: J-RT3-T3-5;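 note: cell viability assay measuring growth inhibition of human J-RT3-T3-5 cells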
Test: cells
Type: functional, cell-based, Homo sapiens
Conditions: Homo sapiens, J-RT3-T3-5
Description: SANGER: Inhibition of human J-RT3-T3-5 cell growth in a cell viability assay.

Structure (SMILES)	IC50 [µM]
CC1=C(/C=C/C(C)=C/C=C/C(C)=C/C(=O)O)C(C)(C)CCC1 [TRETINOIN]	> 10

Tested on: MLMA;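 note: growth inhibition of MLMA cells (human), determined through a cell viability readout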
Test: cells
Type: functional, cell-based, Homo sapiens
Conditions: Homo sapiens, MLMA
Description: SANGER: Inhibition of human MLMA cell growth in a cell viability assay.

Structure (SMILES)	IC50 [µM]
CC1=C(/C=C/C(C)=C/C=C/C(C)=C/C(=O)O)C(C)(C)CCC1 [TRETINOIN]	> 10

Tested on: KARPAS-299
Test: cells
Type: functional, cell-based, Homo sapiens
Conditions: Homo sapiens, KARPAS-299
Description: SANGER: Inhibition of human KARPAS-299 cell growth in a cell viability assay.

Structure (SMILES)	IC50 [µM]
CC1=C(/C=C/C(C)=C/C=C/C(C)=C/C(=O)O)C(C)(C)CCC1 [TRETINOIN]	> 10

Tested on: MZ1-PC;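 note: cell viability assay measuring growth inhibition of human MZ1-PC cells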
Test: cells
Type: functional, cell-based, Homo sapiens
Conditions: Homo sapiens, MZ1-PC
Description: SANGER: Inhibition of human MZ1-PC cell growth in a cell viability assay.

Structure (SMILES)	IC50 [µM]
CC1=C(/C=C/C(C)=C/C=C/C(C)=C/C(=O)O)C(C)(C)CCC1 [TRETINOIN]	> 10

Tested on: KY821;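 note: growth inhibition of human KY821 cells, read out by a cell viability assay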
Test: cells
Type: functional, cell-based, Homo sapiens
Conditions: Homo sapiens, KY821
Description: SANGER: Inhibition of human KY821 cell growth in a cell viability assay.

Structure (SMILES)	IC50 [µM]
CC1=C(/C=C/C(C)=C/C=C/C(C)=C/C(=O)O)C(C)(C)CCC1 [TRETINOIN]	5.7

Tested on: KALS-1;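 note: growth inhibition of KALS-1 cells, determined with a cell viability assay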
Test: cells
Type: functional, cell-based, Homo sapiens
Conditions: Homo sapiens, KALS-1; read-out: IC50
Description: SANGER: Inhibition of human KALS-1 cell growth in a cell viability assay.

Structure (SMILES)	IC50 [µM]
CC1=C(/C=C/C(C)=C/C=C/C(C)=C/C(=O)O)C(C)(C)CCC1 [TRETINOIN]	> 10

Tested on: SK-MEL-2;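 note: growth inhibition of human SK-MEL-2 cells measured with a cell viability assay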
Test: cells
Type: functional, cell-based, Homo sapiens
Conditions: Homo sapiens, SK-MEL-2
Description: SANGER: Inhibition of human SK-MEL-2 cell growth in a cell viability assay.

Structure (SMILES)	IC50 [µM]
CC1=C(/C=C/C(C)=C/C=C/C(C)=C/C(=O)O)C(C)(C)CCC1 [TRETINOIN]	> 10

Tested on: SW 962;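 note: growth inhibition of human SW962 cells, read out by a cell viability assay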
Test: cells
Type: functional, cell-based, Homo sapiens
Conditions: Homo sapiens, SW 962
Description: SANGER: Inhibition of human SW962 cell growth in a cell viability assay.

Structure (SMILES)	IC50 [µM]
CC1=C(/C=C/C(C)=C/C=C/C(C)=C/C(=O)O)C(C)(C)CCC1 [TRETINOIN]	> 10

Tested on: RS4-11;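 note: growth inhibition of RS4-11 cells, read out by a cell viability assay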
Test: cells
Type: functional, cell-based, Homo sapiens
Conditions: Homo sapiens, RS4-11
Description: SANGER: Inhibition of human RS4-11 cell growth in a cell viability assay.

Structure (SMILES)	IC50 [µM]
CC1=C(/C=C/C(C)=C/C=C/C(C)=C/C(=O)O)C(C)(C)CCC1 [TRETINOIN]	4.45

Tested on: LS-411N
Test: cells
Type: functional, cell-based, Homo sapiens
Conditions: Homo sapiens, LS-411N

Structure (SMILES)	IC50 [µM]
CC1=C(/C=C/C(C)=C/C=C/C(C)=C/C(=O)O)C(C)(C)CCC1 [TRETINOIN]	> 10

Tested on: D-263MG
Test: cells
Type: functional, cell-based, Homo sapiens
Conditions: Homo sapiens, D-263MG
Description: SANGER: Inhibition of human D-263MG cell growth in a cell viability assay.

Structure (SMILES)	IC50 [µM]
CC1=C(/C=C/C(C)=C/C=C/C(C)=C/C(=O)O)C(C)(C)CCC1 [TRETINOIN]	> 10

Tested on: DSH1;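 note: growth inhibition of human DSH1 cells, measured with a cell viability readout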
Test: cells
Type: functional, cell-based
Conditions: Homo sapiens
Description: SANGER: Inhibition of human DSH1 cell growth in a cell viability assay.

Structure (SMILES)	IC50 [µM]
CC1=C(/C=C/C(C)=C/C=C/C(C)=C/C(=O)O)C(C)(C)CCC1 [TRETINOIN]	> 10

Tested on: NCI-H1648;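 note: cell viability assay measuring inhibition of NCI-H1648 cell growth, from the Sanger screening data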
Test: cells
Type: functional, cell-based, Homo sapiens
Conditions: Homo sapiens, NCI-H1648
Description: SANGER: Inhibition of human NCI-H1648 cell growth in a cell viability assay.

Structure (SMILES)	IC50 [µM]
CC1=C(/C=C/C(C)=C/C=C/C(C)=C/C(=O)O)C(C)(C)CCC1 [TRETINOIN]	9.74
